According to US20120238547A1, “2, 3, 6 - TRIAMINO SUBSTITUTED PYRIDINES AS KV7 (KCNQ) CHANNEL MODULATORS” (NEUROSEARCH A/S, priority 2009, published 2012):

Legend:
human Kv7.2+3 [1] = biological target: T1, human Kv7.2+3 (Homo sapiens, UniProt O43525+O43526); assay: FLIPR-based thallium (I) influx characterization of Kv7.2+3 modulators; assay type: cell-based; conditions: for EC50: HEK293 cells over-expressing human Kv7.2+3, Tl+ influx, BTC-AM, 50% of channel activity compared to retigabine control responses; for Efficacy: maximal response relative to the reference (retigabine) response
T1 construct: expressed in transfected cells; host or cells: HEK293
Method: This experiment determines the ability of a test compound to modulate the activity of Kv7.2+3 channels heterologously expressed in human HEK293 cells. The ability is determined relative to retigabine. The activity is determined using a standard thallium (I) sensitive assay, e.g. using a fluorometric method in a Fluorescent Image Plate Reader (FLIPR) as described below in more detail.
Full concentration/response curves are generated and EC50 values are calculated based on max values. EC50 values (Effective Concentration) represent the concentration of the test substance, at which 50% of the channel activity is obtained when compared to retigabine control responses. Maximal response determined relative to the reference (retigabine) response is calculated.
Human HEK293 cells over-expressing human Kv7.2+3 are grown in culture medium (DMEM supplemented with 10% foetal bovine serum), in polystyrene culture flasks ([…]) in a humidified atmosphere of 5% CO2 in air, at 37° C. Cell confluence should be 80-90% on day of plating. Cells are rinsed with 4 ml of PBS (phosphate buffered saline) and incubated 2 min with 1 ml of Trypsin-EDTA. After addition of 25 ml of culture medium cells are re-suspended by trituration with a 25 ml pipette.
The cells are seeded at a density of ˜3×10^6 cells/ml (25 μl/well) in blackwalled, clear bottom, 384-well plates pre-treated with 0.01 g/l poly-D-lysin (20 μl/well for ≧30 min). Plated cells were allowed to proliferate for 24 h before loading with dye.
BTC-AM (50 mg, Invitrogen) is added 25.5 μl DMSO. The BTC-AM stock solution (2 mM) is diluted to a final concentration of 2 μM in Cl^− free assay buffer (in mM: 140 Na^−-gluconate, 2.5 K^+-gluconate, 6 Ca2^+-gluconate, 1 Mg^2+ gluconate, 5 glucose, 10 HEPES, pH 7.3) containing 2 μM ouabain, 2 mM amaranth and 1 mM tartrazine. […]
After the loading period, the Tl^+-sensitive BTC fluorescence signal is measured over time using a FLIPR.
• Temperature: Room temp. • First addition: 12 μl test or control compound after 15 sec at a rate of 30 μl/sec and starting height of 20 μl • Second addition: 12 μl stimulus buffer (Cl^− free assay buffer supplemented with 1 mM Tl2SO4, 5 mM K2SO4 as well as the quenchers amaranth (2 mM) and tartrazine (1 mM)) is added after an additional 3 minutes at a rate of 30 μl/sec and starting height of 30 μl • Reading intervals: First sequence—3 sec×5, 2 sec×24 and 5 sec×25 • Second sequence—1 sec×5, 2 sec×24 and 5 sec×36 Addition plates (compound plate and stimulus plate) are placed in positions 2 and 3, respectively. […] Fluorescence obtained after stimulation is corrected for the mean basal fluorescence (in Cl^− free assay buffer). […]

human Kv7.2+3 [2] = biological target: T1, human Kv7.2+3; assay: Patch-clamp on HEK293 cell lines stably expressing human Kv7.2+3 channels; assay type: cell-based; conditions: current relative to baseline current defined as 100%
Source text: The effect obtained by these channel activators is described as a percentage increase in baseline current at a given concentration. The baseline current is defined as 100%, and an increase in current is expressed relative to this, i.e. an increase from 1 nA to 1.2 nA is reported as 120%.

With `Cc1ccoc1C(=O)Nc1c(C)cc(N2CCOCC2)nc1N1CC[C@@H](F)C1` [Compound 1.2, 3-Methyl-furan-2-carboxylic acid [2-((R)-3-fluoro-pyrrolidin-1-yl)-4-methyl-6-morpholin-4-yl-pyridin-3-yl]-amide] as the compound, how does the EC50 (human Kv7.2+3 [1]) read?
Its EC50 is 190 nM.

What about the Efficacy (human Kv7.2+3 [1]) of the same compound?
Its Efficacy is 98%.

What about the “IK (%) conc. 0.03 μM, −30 mV, 20 ms” value (human Kv7.2+3 [2]; 0.03 μM) of the same compound?
Its value is 136%.

What about the “IK (%) conc. 0.3 μM, −30 mV, 20 ms” value (human Kv7.2+3 [2]) of the same compound?
The value was 428 (n = 5) %.

With `Cc1ccoc1C(=O)Nc1c(C)cc(N2CCCOCC2)nc1N1CC[C@@H](F)C1` [Compound 1.1, 3-Methyl-furan-2-carboxylic acid [2-((R)-3-fluoro-pyrrolidin-1-yl)-4-methyl-6-[1,4]oxazepan-4-yl-pyridin-3-yl]-amide] as the compound, how does the EC50 (human Kv7.2+3 [1]) read?
The EC50 was 1200 nM.

What about the Efficacy (human Kv7.2+3 [1]) of the same compound?
The Efficacy was 98%.

What about the “IK (%) conc. 0.3 μM, −30 mV, 20 ms” value (human Kv7.2+3 [2]) of the same compound?
The value was 293 (n = 2) %.
